# Experimental data taken from patent publication US20230085307A1, “PYRIDAZINONE COMPOUND AND HERBICIDE” (NISSAN CHEMICAL CORPORATION, priority 2019, published 2023).
# Legend:
# [1] = system: lambsquarters; experiment: Test Example 4: herbicidal effect by soil treatment (Table 19, symbol O); type: in vivo, lambsquarters (Chenopodium album); conditions: 283 g/ha
# Procedure, shortened: (§1)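 Pre-emergence style soil spray: seeds under ~1.5 cm sterilized diluvial soil received a uniform coat of emulsion diluted to the predetermined herbicide amount. Greenhouse 25–30° C; readout at week three on previously defined criteria.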
# [2] = system: barnyard grass; experiment: Test Example 4: herbicidal effect by soil treatment (Table 19, symbol H); type: in vivo, barnyard grass (Echinochloa crus-galli); conditions: 283 g/ha
# Procedure, shortened: as §1
# [3] = system: blackgrass; experiment: Test Example 5: herbicidal effect by foliage application, plastic box (Table 20, symbol J); type: in vivo, blackgrass (Alopecurus myosuroides); conditions: foliage application, 283 g/ha, 3 weeks after application
# Procedure, shortened: (§2)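 Plants were sown into sterilized diluvial soil under about 1.5 cm cover and kept in a greenhouse at 25° C. to 30° C. Fourteen days on, foliage received an even spray of the diluted emulsion. Herbicidal or crop effect was judged three weeks afterwards.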
# [4] = system: Italian ryegrass; experiment: Test Example 4: herbicidal effect by soil treatment (Table 19, symbol K); type: in vivo, Italian ryegrass (Lolium multiflorum); conditions: 283 g/ha
# Procedure, shortened: as §1
# [5] = system: redroot pigweed; experiment: Test Example 4: herbicidal effect by soil treatment (Table 19, symbol N); type: in vivo, redroot pigweed (Amaranthus retroflexus); conditions: 283 g/ha
# Procedure, shortened: as §1
# [6] = system: barnyard grass; experiment: Test Example 3: herbicidal effect by foliage application, Wagner pot (Table 18, symbol H); type: in vivo, barnyard grass (Echinochloa crus-galli); conditions: 283 g/ha
# Procedure, shortened: (§3)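 Plants were sown in alluvial soil held under 0.1–0.5 cm standing water and grown 14 days in a greenhouse at 25–30 °C. An emulsifiable formulation, water-diluted to the set dose, was then sprayed onto the foliage, and effects were scored three weeks later using previously defined criteria.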
# [7] = system: southern crabgrass; experiment: Test Example 5: herbicidal effect by foliage application, plastic box (Table 20, symbol F); type: in vivo, southern crabgrass (Digitaria ciliaris); conditions: foliage application, 283 g/ha, 3 weeks after application
# Procedure, shortened: as §2
# [8] = system: false cleavers; experiment: Test Example 5: herbicidal effect by foliage application, plastic box (Table 20, symbol Q); type: in vivo, false cleavers (Galium spurium); conditions: foliage application, 283 g/ha, 3 weeks after application
# Procedure, shortened: as §2
# [9] = system: windgrass; experiment: Test Example 4: herbicidal effect by soil treatment (Table 19, symbol L); type: in vivo, windgrass (Apera spica-venti); conditions: 283 g/ha
# Procedure, shortened: as §1
# [10] = system: southern crabgrass; experiment: Test Example 4: herbicidal effect by soil treatment (Table 19, symbol F); type: in vivo, southern crabgrass (Digitaria ciliaris); conditions: 283 g/ha
# Procedure, shortened: as §1
# [11] = system: wild oat; experiment: Test Example 5: herbicidal effect by foliage application, plastic box (Table 20, symbol I); type: in vivo, wild oat (Avena fatua); conditions: foliage application, 283 g/ha, 3 weeks after application
# Procedure, shortened: as §2
# [12] = system: false cleavers; experiment: Test Example 4: herbicidal effect by soil treatment (Table 19, symbol Q); type: in vivo, false cleavers (Galium spurium); conditions: 283 g/ha
# Procedure, shortened: as §1
# [13] = system: chickweed; experiment: Test Example 4: herbicidal effect by soil treatment (Table 19, symbol P); type: in vivo, common chickweed (Stellaria media); conditions: 283 g/ha
# Procedure, shortened: as §1
# [14] = system: blackgrass; experiment: Test Example 4: herbicidal effect by soil treatment (Table 19, symbol J); type: in vivo, blackgrass (Alopecurus myosuroides); conditions: 283 g/ha
# Procedure, shortened: as §1
# [15] = system: green foxtail; experiment: Test Example 5: herbicidal effect by foliage application, plastic box (Table 20, symbol G); type: in vivo, green foxtail (Setaria viridis); conditions: foliage application, 283 g/ha, 3 weeks after application
# Procedure, shortened: as §2
# [16] = system: Italian ryegrass; experiment: Test Example 5: herbicidal effect by foliage application, plastic box (Table 20, symbol K); type: in vivo, Italian ryegrass (Lolium multiflorum); conditions: foliage application, 283 g/ha, 3 weeks after application
# Procedure, shortened: as §2
# [17] = system: velvetleaf; experiment: Test Example 4: herbicidal effect by soil treatment (Table 19, symbol M); type: in vivo, velvetleaf (Abutilon theophrasti); conditions: 283 g/ha
# Procedure, shortened: as §1
# [18] = system: windgrass; experiment: Test Example 5: herbicidal effect by foliage application, plastic box (Table 20, symbol L); type: in vivo, windgrass (Apera spica-venti); conditions: foliage application, 283 g/ha, 3 weeks after application
# Procedure, shortened: as §2
# [19] = system: velvetleaf; experiment: Test Example 5: herbicidal effect by foliage application, plastic box (Table 20, symbol M); type: in vivo, velvetleaf (Abutilon theophrasti); conditions: foliage application, 283 g/ha, 3 weeks after application
# Procedure, shortened: as §2
# [20] = system: persian speedwell; experiment: Test Example 4: herbicidal effect by soil treatment (Table 19, symbol R); type: in vivo, Persian speedwell (Veronica persica); conditions: 283 g/ha
# Procedure, shortened: as §1
# [21] = system: Chinese sprangletop; experiment: Test Example 3: herbicidal effect by foliage application, Wagner pot (Table 18, symbol D); type: in vivo, chinese sprangletop (Leptochloa chinensis); conditions: 283 g/ha
# Procedure, shortened: as §3
# [22] = system: barnyard grass; experiment: Test Example 5: herbicidal effect by foliage application, plastic box (Table 20, symbol H); type: in vivo, barnyard grass (Echinochloa crus-galli); conditions: foliage application, 283 g/ha, 3 weeks after application
# Procedure, shortened: as §2
# [23] = system: green foxtail; experiment: Test Example 4: herbicidal effect by soil treatment (Table 19, symbol G); type: in vivo, green foxtail (Setaria viridis); conditions: 283 g/ha
# Procedure, shortened: as §1
# [24] = system: persian speedwell; experiment: Test Example 5: herbicidal effect by foliage application, plastic box (Table 20, symbol R); type: in vivo, Persian speedwell (Veronica persica); conditions: foliage application, 283 g/ha, 3 weeks after application
# Procedure, shortened: as §2
# [25] = system: wild oat; experiment: Test Example 4: herbicidal effect by soil treatment (Table 19, symbol I); type: in vivo, wild oat (Avena fatua); conditions: 283 g/ha
# Procedure, shortened: as §1
# [26] = system: lambsquarters; experiment: Test Example 5: herbicidal effect by foliage application, plastic box (Table 20, symbol O); type: in vivo, lambsquarters (Chenopodium album); conditions: foliage application, 283 g/ha, 3 weeks after application
# Procedure, shortened: as §2
# [27] = system: rice flat sedge; experiment: Test Example 3: herbicidal effect by foliage application, Wagner pot (Table 18, symbol E); type: in vivo, rice flat sedge (Cyperus iria); conditions: 283 g/ha
# Procedure, shortened: as §3
smiles,measurement,setting,value
CCCC(=O)Oc1c(C)nn(C)c(=O)c1-c1c(-c2ccccc2OC)sc2ccc(F)cc12 [2-025],"herbicidal effect rating, O: lambsquarters",[1],4 (Herbicidal rate of 70% or more and less than 90%)
same,"herbicidal effect rating, H: barnyard grass",[2],3 (Herbicidal rate of 40% or more and less than 70%)
same,effect on blackgrass (J),[3],0 (Herbicidal rate of 5% or less (almost no effect))
same,"herbicidal effect rating, K: Italian ryegrass",[4],0 (Herbicidal rate of 5% or less (almost no effect))
same,"herbicidal effect rating, N: redroot pigweed",[5],3 (Herbicidal rate of 40% or more and less than 70%)
same,"herbicidal effect on H (barnyard grass), rating 0-5",[6],4 (Herbicidal rate of 70% or more and less than 90%)
same,effect on southern crabgrass (F),[7],4 (Herbicidal rate of 70% or more and less than 90%)
same,effect on false cleavers (Q),[8],4 (Herbicidal rate of 70% or more and less than 90%)
same,"herbicidal effect rating, L: windgrass",[9],0 (Herbicidal rate of 5% or less (almost no effect))
same,"herbicidal effect rating, F: southern crabgrass",[10],3 (Herbicidal rate of 40% or more and less than 70%)
same,effect on wild oat (I),[11],3 (Herbicidal rate of 40% or more and less than 70%)
same,"herbicidal effect rating, Q: false cleavers",[12],4 (Herbicidal rate of 70% or more and less than 90%)
same,"herbicidal effect rating, P: chickweed",[13],4 (Herbicidal rate of 70% or more and less than 90%)
same,"herbicidal effect rating, J: blackgrass",[14],0 (Herbicidal rate of 5% or less (almost no effect))
same,effect on green foxtail (G),[15],4 (Herbicidal rate of 70% or more and less than 90%)
same,effect on Italian ryegrass (K),[16],1 (Herbicidal rate of 5% or more and less than 20%)
same,"herbicidal effect rating, M: velvetleaf",[17],2 (Herbicidal rate of 20% or more and less than 40%)
same,effect on windgrass (L),[18],1 (Herbicidal rate of 5% or more and less than 20%)
same,effect on velvetleaf (M),[19],5 (Herbicidal rate of 90% or more (almost completely withered))
same,"herbicidal effect rating, R: persian speedwell",[20],3 (Herbicidal rate of 40% or more and less than 70%)
same,"herbicidal effect on D (Chinese sprangletop), rating 0-5",[21],0 (Herbicidal rate of 5% or less (almost no effect))
same,effect on barnyard grass (H),[22],3 (Herbicidal rate of 40% or more and less than 70%)
same,"herbicidal effect rating, G: green foxtail",[23],4 (Herbicidal rate of 70% or more and less than 90%)
same,effect on persian speedwell (R),[24],4 (Herbicidal rate of 70% or more and less than 90%)
same,"herbicidal effect rating, I: wild oat",[25],3 (Herbicidal rate of 40% or more and less than 70%)
same,effect on lambsquarters (O),[26],3 (Herbicidal rate of 40% or more and less than 70%)
same,"herbicidal effect on E (rice flat sedge), rating 0-5",[27],4 (Herbicidal rate of 70% or more and less than 90%)
